Here are results for 19 molecules from patent US20030087395A1, “Cardiotrophin-like cytokine” (Human Genome Sciences, Inc., priority 1997, published 2003).

One assay has as its system Primary cardiomyocytes. Briefly: Cardiac myocyte hypertrophy, cell counts in culture. The assay is classed as cell-based. As to conditions: counted 48 to 72 hours post-treatment; four fields in three independent cultures, averaged. As to the method:
(§1) Primary cardiomyocytes, primary neuronal cultures, or other cells are plated at a low density and cultured using standard culturing techniques. […] Cultures are evaluated at a point between 48 and 72 hours post-treatment by counting the number of cells in four non-overlapping fields in three independent cultures and averaging the results.

The test system of assay [1] is primary neuronal cultures (sympathetic neuron counts). Briefly: Neuron counts in primary neuronal cultures. Conditions: counted 48 to 72 hours post-treatment; four fields in three independent cultures, averaged. The assay is classed as cell-based. As to the method:
as §1

For another assay, the system named is STATS. As to conditions: numbers of the STATs activated; adapted from Schidler and Darnell review; cited from earlier work.
The next assay deals with GAS or ISRE. As to conditions: element bound; adapted from Schidler and Darnell review; cited from earlier work.

On to `CNC[C@H](O)c1cccc(O)c1` [Phenylephrine, reference compound], for which the “No. Active Myocytes” value in the assay with Primary cardiomyocytes came to 92. Also, in assay [1], the “No. Neurons” value came to 28.
For the molecule IL-13: g-C family ligand (lymphocyte), in the assay on STATS, the STATS is given as 6. In addition, in the assay with GAS or ISRE, the “GAS or ISRE” value is listed as “GAS”.
Turning to GM-CSF: gp140 family ligand (myeloid), the STATS in the assay on STATS is on record as 5. The “GAS or ISRE” value in the assay on GAS or ISRE was “GAS”.
In the case of IL-15: g-C family ligand, in the assay with STATS, the STATS is 5. Moreover, the “GAS or ISRE” value in the assay on GAS or ISRE was “GAS”.
As to PDGF, the STATS in the assay on STATS is given as 1,3.
Consider “EGF: ligand of Receptor Tyrosine Kinases”, for which the STATS in the assay with STATS is listed as 1,3. Moreover, in the assay with GAS or ISRE, the “GAS or ISRE” value was “GAS (IRF1)”.
In the case of IL-9: g-C family ligand (lymphocytes), the STATS in the assay on STATS was 5. Moreover, in the assay on GAS or ISRE, the “GAS or ISRE” value was “GAS”.
As to IL-5: gp140 family ligand (myeloid), the STATS in the assay with STATS is on record as 5. In addition, in the assay with GAS or ISRE, the “GAS or ISRE” value was “GAS”.
As for IL-6: gp130 family ligand (Pleiotropic), the STATS in the assay with STATS was 1,3. Also, in the assay with GAS or ISRE, the “GAS or ISRE” value was “GAS”.
On to GH: Growth hormone family ligand, for which the STATS with STATS is given as 5.

B1: IL-12: gp130 family ligand (Pleiotropic) (protein, UniProt P29459 23-219; P29460 23-328, looked up)
Interleukin-12 subunit alpha: RNLPVATPDPGMFPCLHHSQNLLRAVSNMLQKARQTLEFYPCTSEEIDHEDITKDKTSTVEACLPLELTKNESCLNSRETSFITNGSCLASRKTSFMMALCLSSIYEDLKMYQVEFKTMNAKLLMDPKRQIFLDQNMLAVIDELMQALNFNSETVPQKSSLEEPDFYKTKIKLCILLHAFRIRAVTIDRVMSYLNAS
Interleukin-12 subunit beta: IWELKKDVYVVELDWYPDAPGEMVVLTCDTPEEDGITWTLDQSSEVLGSGKTLTIQVKEFGDAGQYTCHKGGEVLSHSLLLLHKKEDGIWSTDILKDQKEPKNKTFLRCEAKNYSGRFTCWWLTTISTDLTFSVKSSRGSSDPQGVTCGAATLSAERVRGDNKEYEYSVECQEDSACPAAEESLPIEVMVDAVHKLKYENYTSSFFIRDIIKPDPPKNLQLKPLKNSRQVEVSWEYPDTWSTPHSYFSLTFCVQVQGKSKREKKDRVFTDKTSATVICRKNASISVRAQDRYYSSSWSEWASVPCS
For the molecule B1, the STATS in the assay on STATS is given as 1,3.

B2: G-CSF: gp130 family ligand (Pleiotropic) (protein, UniProt P09919 31-207, looked up)
Granulocyte …: TPLGPASSLPQSFLLKCLEQVRKIQGDGAALQEKLVSECATYKLCHPEELVLLGHSLGIPWAPLSSCPSQALQLAGCLSQLHSGLFLYQGLLQALEGISPELGPTLDTLQLDVADFATTIWQQMEELGMAPALQPTQGAMPAFASAFQRRAGGVLVASHLQSFLEVSYRVLRHLAQP
Regarding B2, the STATS in the assay with STATS is on record as 1,3.

B3: CSF-1: ligand of Receptor Tyrosine Kinases (protein, UniProt P09603 33-554, looked up)
Macrophage colony-stimulating …: EEVSEYCSHMIGSGHLQSLQRLIDSQMETSCQITFEFVDQEQLKDPVCYLKKAFLLVQDIMEDTMRFRDNTPNAIAIVQLQELSLRLKSCFTKDYEEHDKACVRTFYETPLQLLEKVKNVFNETKNLLDKDWNIFSKNCNNSFAECSSQDVVTKPDCNCLYPKAIPSSDPASVSPHQPLAPSMAPVAGLTWEDSEGTEGSSLLPGEQPLHTVDPGSAKQRPPRSTCQSFEPPETPVVKDSTIGGSPQPRPSVGAFNPGMEDILDSAMGTNWVPEEASGEASEIPVPQGTELSPSRPGGGSMQTEPARPSNFLSASSPLPASAKGQQPADVTGTALPRVGPVRPTGQDWNHTPQKTDHPSALLRDPPEPGSPRISSLRPQGLSNPSTLSAQPQLSRSHSSGSVLPLGELEGRRSTRDRRSPAEPEGGPASEGAARPLPRFNSVPLTDTGHERQSEGSFSPQLQESVFHLLVPSVILVLLAVGGLLFYRWRRRSHQEPQRADSPLEQPEGSPLTQDDRQVELPV
As for B3, the STATS in the assay with STATS was 1,3. Also, in the assay on GAS or ISRE, the “GAS or ISRE” value was “GAS (not”.

B4: IL-7: g-C family ligand (lymphocytes) (protein, UniProt P13232 26-177, looked up)
Interleukin-7: DCDIEGKDGKQYESVLMVSIDQLLDSMKEIGSNCLNNEFNFFKRHICDANKEGMFLFRAARKLRQFLKMNSTGDFDLHLLKVSEGTTILLNCTGQVKGRKPAALGEAQPTKSLEENKSLKEQKKLNDLCFLKRLLQEIKTCWNKILMGTKEH
Consider B4, for which, in the assay with STATS, the STATS is on record as 5. Besides, the “GAS or ISRE” value in the assay with GAS or ISRE is recorded as “GAS”.

B5: IL-10: ligand of the IFN family in the Jaks-STATs table (protein, UniProt P22301 19-178, looked up)
Interleukin-10: SPGQGTQSENSCTHFPGNLPNMLRDLRDAFSRVKTFFQMKDQLDNLLLKESLLEDFKGYLGCQALSEMIQFYLEEVMPQAENQDPDIKAHVNSLGENLKTLRLRLRRCHRFLPCENKSKAVEQVKNAFNKLQEKGIYKAMSEFDIFINYIEAYMTMKIRN
Consider B5, for which, in the assay on STATS, the STATS is 1,3.

B6: OnM: gp130 family ligand (Pleiotropic) (protein, UniProt P13725 26-221, looked up)
Oncostatin-M: AAIGSCSKEYRVLLGQLQKQTDLMQDTSRLLDPYIRIQGLDVPKLREHCRERPGAFPSEETLRGLGRRGFLQTLNATLGCVLHRLADLEQRLPKAQDLERSGLNIEDLEKLQMARPNILGLRNNIYCMAQLLDNSDTAEPTKAGRGASQPPTPTPASDAFQRKLEGCRFLHGYHRFMHSVGRVFSKWGESPNRSRR
In the case of B6, the STATS with STATS was 1,3.

B7: IL-11: gp130 family ligand (Pleiotropic) (protein, UniProt P20809 22-199, looked up)
Interleukin-11: PGPPPGPPRVSPDPRAELDSTVLLTRSLLADTRQLAAQLRDKFPADGDHNLDSLPTLAMSAGALGALQLPGVLTRLRADLLSYLRHVQWLRRAGGSSLKTLEPELGTLQARLDRLLRRLQLLMSRLALPQPPPDPPAPPLAPPSSAWGGIRAAHAILGGLHLTLDWAVRGLLLLKTRL
B7: the STATS in the assay with STATS is 1,3.

B8: CNTF: gp130 family ligand (Pleiotropic) (protein)
chain: MAFTEHSPLTPHRRDLCSRSIWLARKIRSDLTALTESYVKHQGLNKNINLDSADGMPVASTDQWSELTEAERLQENLQAYRTFHVLLARLLEDQQVHFTPTEGDFHQAIHTLLLQVAAFAYQIEELMILLEYKIPRNEADGMPINVGDGGLFEKKLWGLKVLQELSQWTVRSIHDLRFISSHQTGIPARGSHYIANNKKM
modifications: homo sapiens
As to B8, the STATS in the assay on STATS is on record as 1,3.

B9: IL-4: g-C family ligand (lymph/myeloid) (protein, UniProt P05112 25-153, looked up)
Interleukin-4: HKCDITLQEIIKTLNSLTEQKTLCTELTVTDIFAASKNTTEKETFCRAATVLRQFYSHHEKDTRCLGATAQQFHRHKQLIRFLKRLDRNLWGLAGLNSCPVKEANQSTLENFLERLKTIMREKYSKCSS
Turning to B9, the STATS with STATS is 6. In addition, the “GAS or ISRE” value in the assay on GAS or ISRE is given as “GAS”.
